{
  "source": "patent US5563140A",
  "about": "“Use of 1-(aminoalkyl)-3-(benzyl)-quinoxaline-2-one derivatives for the preparation of neuroprotective compositions” (Phafag Aktiengesellschaft, priority 1991, dated 1996)",
  "key": {"glutamate receptors": {"system": "glutamate receptors", "experiment": "Microiontophoresis at inner hair cell synapse of guinea pig cochlea: glutamate-induced spike activity", "assay_type": "in vivo, guinea pigs", "protocol": "The effectiveness of the 1-(aminoalkyl)-3-(benzyl)-quinoxaline-2-one derivatives as potential glutamate receptor antagonists was studied in the light of the neurotransmission between the inner hair cells (IHC) and the peripheral dendrites of the afferent neurons in the mammalian cochlea.\n(§1) Experiments were performed on adult pigmented guinea pigs (300-700 g) of both sexes, anaesthetized with a combination of Rompun (Bayer, Leverkusen, Germany) and Innovar-Vet (Pitman-Moore, Mundelin, Ill., U.S.A.). Supplementary low doses of pentobarbital (Nembutal, Abbott, Chicago, U.S.A.) were given periodically throughout the experiments. Rectal temperature was maintained within physiological limits. After tracheotomy for artificial respiration, the auditory bulla was approached ventrolaterally and the cochlea was exposed. A small opening was drilled into the cochlea bone over the pigmented stria vascularis and the ligamentum spiale of the third turn.\n(§2) The occurrence of phasic activity was used to identify the location precisely, since such activity occurs in the immediate vicinity of the initial postsynaptic structures.\nRecordings of extracellular action potentials were obtained using a 2M NaCl-filled barrel of the 5-barrel glass micropipette. […]"}, "central nervous system": {"system": "central nervous system", "experiment": "Double-blind, placebo-controlled clinical study, EEG-mapping", "assay_type": "in vivo, persons", "settings": "40 mg or 80 mg, orally or intravenously", "protocol": "In a double-blind, placebo-controlled clinical study on a group of 15 persons, the cerebral effect of Caroverine was tested by means of electro-encephalogram (EEG)-mapping. The 15 caucasian probands were 7 females and 8 males between 20 and 35 years old (average 27 years). The weight ranged between 53 and 84 kg (average weight: 69 kg) and the height varied between 162 to 186 cm (average height: 175 cm).\nDoses of 40 mg or 80 mg of Caroverine or placebo were administered either orally or intravenously for random sampling to the persons in weekly intervals. EEG-tracings as well as recordings of pulse, blood pressure and side effects were carried out 0, 1, 2, 4, 6 and 8 hours after medication."}, "[1]": {"system": "membrane response to acetylcholine", "experiment": "Microiontophoresis at inner hair cell synapse of guinea pig cochlea: acetylcholine-induced firing (selectivity)", "assay_type": "in vivo, guinea pigs", "settings": "acetylcholine 60 nA; Caroverine 30 nA, FIG. 3", "protocol": "as §1, §2\nRecordings of extracellular action potentials were obtained using a 2M NaCl-filled barrel of the 5-barrel glass micropipette. […] Three other channels of the micropipette contained the solutions to be ejected microiontophoretically with the appropriate anionic and cationic currents: L-glutamic acid (0.5M, pH 3.5, adjusted with HCl); Caroverine-HCl (1-diethylaminoethyl-3-(p-methoxybenzyl)-1,2-dihydro-quinoxaline-2-one, 0.05M, natural pH=6.0). […]"}, "tinnitus": {"system": "tinnitus", "experiment": "Pilot clinical study in patients suffering from tinnitus", "assay_type": "in vivo", "settings": "70-160 mg", "protocol": "The neuroprotective effect of Caroverine was tested in a clinical study with patients who suffered from tinnitus. The etiology of tinnitus can be very different in different patients. One of the most frequent tinnitus type is, however, the cochlear tinnitus. If a functional disturbance between the IHC and the peripheral dendrites of the […] neurons is deemed to be the initiating, etiological factor, then this is called a \"cochlear synaptic tinnitus\". A neuroprotective pharmaceutical like Caroverine should therefore have a positive effect on the cochlear synaptic tinnitus.\nIn a pilot study Caroverine was applied to 72 patients suffering from tinnitus. Caroverine was applied intravenously (160 mg/100 ml physiological NaCl-solution). The real dosage depended on the tinnitus reduction perceived by the individual patient and varied between 70 and 160 mg.\nThe effectiveness of Caroverine was measured by a subjective rating and tinnitus-matching before and after the infusion of the drug."}, "[2]": {"experiment": "Side-effects on application, also in high doses", "assay_type": "in vivo", "settings": "Caroverine and its salts", "text": "Thus, it is experimentally established that 1-(aminoalkyl)-3-(benzyl)-quinoxaline-2-one derivatives are a potent, reversible and selective class of new glutamate receptor antagonists on the excitatory […] synapses of the cochlear inner hair cells."}},
  "data": [
    {"smiles": "CCN(CC)CCn1c(=O)c(Cc2ccc(O)cc2)nc2ccccc21", "note": "[1-diethylaminoethyl-3-(p-hydroxy)-1,2-dihydroquinoxaline-2-one]", "values": [
      {"measurement": "effectiveness as glutamate receptor antagonist", "setting": "glutamate receptors; cochlear inner hair cell synapses", "value": "effective"}
    ]},
    {"smiles": "CCN(CC)CCn1c(=O)c(Cc2ccc(OC)cc2)nc2ccccc21", "note": "[Caroverine]", "values": [
      {"measurement": "time of maximum effect after medication", "setting": "central nervous system", "value": "around 1 hour"},
      {"measurement": "effect on acetylcholine-induced firing rate", "setting": "[1]", "value": "no effect"},
      {"measurement": "patients noting a tinnitus reduction of at least 50% in absolute value", "setting": "tinnitus; immediately after intravenous infusion, 72 patients", "value": 66.7, "unit": "%"},
      {"measurement": "side-effects", "setting": "tinnitus; intravenous infusion", "value": "No sincere side-effects"},
      {"measurement": "side-effects", "setting": "[2]", "value": "no critical side-effects"}
    ]},
    {"smiles": "N[C@@H](CCC(=O)O)C(=O)O", "note": "[Glutamate, L-glutamic acid]", "values": [
      {"measurement": "effect on firing rate of fibers in the synaptic region of IHC", "setting": "glutamate receptors; agonist alone, n=29 out of 31 fibers", "value": "enhances the firing rate"}
    ]}
  ]
}
